# Where two headings read alike, the source gives them in different places.
# What was measured:
# [1] = target: T1, full-length beta-Catenin (Uniprot ID P35222) (Homo sapiens, UniProt P35222); test: Fluorescence polarization IC50 (beta-catenin / 5FAM-TCF4 10-53 competition); assay type: binding; conditions: fluorescence polarization; read-out: beta-Catenin FP IC50
# T1 construct: 10 nM full-length beta-Catenin (Uniprot ID P35222)
# T1 sequence (P35222 1-781): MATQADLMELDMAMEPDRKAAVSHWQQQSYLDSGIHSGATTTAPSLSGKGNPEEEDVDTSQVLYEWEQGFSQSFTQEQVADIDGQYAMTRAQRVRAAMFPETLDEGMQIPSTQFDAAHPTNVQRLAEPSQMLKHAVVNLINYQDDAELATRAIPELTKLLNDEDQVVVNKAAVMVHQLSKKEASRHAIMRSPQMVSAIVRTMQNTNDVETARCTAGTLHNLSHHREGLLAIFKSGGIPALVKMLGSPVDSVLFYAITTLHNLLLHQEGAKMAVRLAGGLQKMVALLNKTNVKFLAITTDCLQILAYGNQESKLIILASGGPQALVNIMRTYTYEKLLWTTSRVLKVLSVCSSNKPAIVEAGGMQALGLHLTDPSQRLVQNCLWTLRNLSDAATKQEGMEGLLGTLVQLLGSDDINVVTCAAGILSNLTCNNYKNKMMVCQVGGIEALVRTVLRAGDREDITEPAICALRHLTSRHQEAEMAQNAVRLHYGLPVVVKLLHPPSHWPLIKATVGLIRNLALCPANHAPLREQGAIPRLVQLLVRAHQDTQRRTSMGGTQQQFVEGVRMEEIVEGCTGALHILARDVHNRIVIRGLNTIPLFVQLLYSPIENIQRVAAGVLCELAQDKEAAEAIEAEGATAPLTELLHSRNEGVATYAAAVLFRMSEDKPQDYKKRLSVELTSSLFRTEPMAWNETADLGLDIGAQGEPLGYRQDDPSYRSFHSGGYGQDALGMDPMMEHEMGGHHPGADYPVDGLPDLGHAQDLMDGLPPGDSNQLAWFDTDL
# [2] = target: T2, beta-catenin/TCF4 engagement (Homo sapiens, UniProt P35222); test: Nano-BRET target engagement assay (B-cat-Halo & TCF4-Luc in HEK293 cells); assay type: cell-based; conditions: read-out: NanoBRET Abs IC50
# T2 construct: expressed in transfected cells; host or cells: HEK293
# T2 sequence (P35222 1-781): T1 sequence (P35222 1-781)
SMILES,IC50 [1] [nM],IC50 ([2]; absolute IC50) [nM],IC50 [2] [nM]
"CC(=O)N1CCC[C@]12CC=CCCCC1(CCCC=CCCCOC(=O)N3CC[C@@](C(=O)N[C@@H](Cc4ccsc4)C(=O)N[C@@H](Cc4ccc(Cl)c(Cl)c4)C(=O)N[C@@H](C)C(N)=O)(C3)NC(=O)[C@H](C(C)C)NC(=O)[C@H](Cc3ccccc3)NC(=O)[C@H](C)NC(=O)[C@H](CCC(N)=O)NC(=O)[C@H](Cc3cccc(C(=O)O)c3)NC(=O)[C@H](CC(=O)O)NC1=O)NC(=O)[C@H](CC(C)(C)C)NC(=O)[C@H](CC(=O)O)NC2=O (stereo partly drawn) [I-2217, Ac-PL3-Asp-Npg-B5-Asp-3COOHF-Gln-Ala-Phe-Val-PyrS2-3Thi-34C1F-Ala-NH2]",6,2100,
"CC(=O)N1CCC[C@]12CC=CCCCC1(CCCC=CCCCOC(=O)N3CC[C@@](C(=O)N[C@@H](Cc4ccsc4)C(=O)N[C@@H](Cc4csc5ccccc45)C(=O)N[C@@H](C)C(N)=O)(C3)NC(=O)[C@H](CC(C)C)NC(=O)[C@H](Cc3ccccc3)NC(=O)[C@H](C)NC(=O)[C@H](CC(N)=O)NC(=O)[C@H](Cc3cccc(C(=O)O)c3)NC(=O)[C@H](CC(=O)O)NC1=O)NC(=O)[C@H](CC(C)(C)C)NC(=O)[C@H](CC(=O)O)NC2=O (stereo partly drawn) [I-2049, Ac-PL3-Asp-Npg-B5-Asp-3COOHF-Asn-Ala-Phe-Leu-PyrS2-3Thi-BztA-Ala-NH2]",5,,4500
"CC(=O)N1CCC[C@]12CC=CCCCC1(CCCC=CCCCOC(=O)N3CC[C@@](C(=O)N[C@@H](Cc4ccccc4Cl)C(=O)N[C@@H](Cc4csc5ccccc45)C(=O)N[C@@H](CC(N)=O)C(N)=O)(C3)NC(=O)[C@H](CO)NC(=O)[C@H](Cc3ccccc3)NC(=O)[C@H](C)NC(=O)[C@H](C)NC(=O)[C@H](Cc3cccc(C(=O)O)c3)NC(=O)[C@H](CC(=O)O)NC1=O)NC(=O)[C@H](CC(C)(C)C)NC(=O)[C@H](CC(=O)O)NC2=O (stereo partly drawn) [I-2039, Ac-PL3-Asp-Npg-B5-Asp-3COOHF-Ala-Ala-Phe-Ser-PyrS2-2C1F-BztA-Asn-NH2]",9,,10500
"CC(=O)N1CCC[C@]12CC=CCCCC1(CCCC=CCCCOC(=O)N3CC[C@@](C(=O)N[C@@H](Cc4ccsc4)C(=O)N[C@@H](Cc4csc5ccccc45)C(=O)N[C@@H](CCC(N)=O)C(N)=O)(C3)NC(=O)[C@H](CCO)NC(=O)[C@H](Cc3cccc(C(=O)O)c3)NC(=O)[C@H](C)NC(=O)[C@H](C)NC(=O)[C@H](Cc3c[nH]cn3)NC(=O)[C@H](CC(=O)O)NC1=O)NC(=O)[C@H](CC(C)(C)C)NC(=O)[C@H](CC(=O)O)NC2=O (stereo partly drawn) [I-2121, Ac-PL3-Asp-Npg-B5-Asp-His-Ala-Ala-3COOHF-Hse-PyrS2-3Thi-BztA-Gln-NH2]",12,,> 20000
"CC(=O)N1CCC[C@]12CC=CCCCC1(CCCC=CCCCOC(=O)N3CC[C@@](C(=O)N[C@@H](Cc4ccsc4)C(=O)N[C@@H](Cc4csc5ccccc45)C(=O)N[C@@H](Cc4ccccc4)C(N)=O)(C3)NC(=O)[C@H](CC(C)C)NC(=O)[C@H](Cc3ccccc3)NC(=O)[C@H](C)NC(=O)[C@H](C)NC(=O)[C@H](CN(CC(=O)O)CC(F)(F)F)NC(=O)[C@H](CC(=O)O)NC1=O)NC(=O)[C@H](CC(C)(C)C)NC(=O)[C@H](CC(=O)O)NC2=O (stereo partly drawn) [I-1750, Ac-PL3-Asp-Npg-B5-Asp-TfeGA-Ala-Ala-Phe-Leu-PyrS2-3Thi-BztA-Phe-NH2]",104,23700,
"CC(=O)N1CCC[C@]12CC=CCCCC1(CCCC=CCCCOC(=O)N3CC[C@@](C(=O)N[C@@H](Cc4ccccc4Cl)C(=O)N[C@@H](Cc4csc5ccccc45)C(=O)N[C@@H](CCC(N)=O)C(N)=O)(C3)NC(=O)[C@H](CC(C)C)NC(=O)[C@H](Cc3ccccc3)NC(=O)CNC(=O)C(C)(C)NC(=O)[C@H](Cc3cccc(C(=O)O)c3)NC(=O)[C@H](CC(=O)O)NC1=O)NC(=O)[C@H](CC(C)(C)C)NC(=O)[C@H](CC(=O)O)NC2=O (stereo partly drawn) [I-1689, Ac-PL3-Asp-Npg-B5-Asp-3COOHF-Aib-Gly-Phe-Leu-PyrS2-2C1F-BztA-Gln-NH2]",25.5,12500,
"CC(=O)N1CCC[C@]12CC=CCCCC1(CCCC=CCCCOC(=O)N3CC[C@@](C(=O)N[C@@H](Cc4ccsc4)C(=O)N[C@@H](Cc4csc5ccccc45)C(=O)N[C@@H](CCC(N)=O)C(N)=O)(C3)NC(=O)[C@H](CC(C)(C)C)NC(=O)[C@H](Cc3ccccc3)NC(=O)[C@H](C)NC(=O)[C@H](C)NC(=O)[C@H](CN(CC(=O)O)CC(F)(F)F)NC(=O)[C@H](CC(=O)O)NC1=O)NC(=O)[C@H](CC(C)(C)C)NC(=O)[C@H](CC(=O)O)NC2=O (stereo partly drawn) [I-1773, Ac-PL3-Asp-Npg-B5-Asp-TfeGA-Ala-Ala-Phe-Npg-PyrS2-3Thi-BztA-Gln-NH2]",32,8600,
"CC(=O)N1CCC[C@]12CC=CCCCC1(CCCC=CCCCOC(=O)N3CC[C@@](C(=O)N[C@@H](Cc4ccccc4Cl)C(=O)N[C@@H](Cc4csc5ccccc45)C(=O)N[C@H](C(N)=O)C(C)C)(C3)NC(=O)[C@H](CC(N)=O)NC(=O)[C@H](Cc3ccccc3)NC(=O)[C@H](C)NC(=O)[C@H](C)NC(=O)[C@H](Cc3cccc(C(=O)O)c3)NC(=O)[C@H](CC(=O)O)NC1=O)NC(=O)[C@H](CC(C)(C)C)NC(=O)[C@H](CC(=O)O)NC2=O (stereo partly drawn) [I-2032, Ac-PL3-Asp-Npg-B5-Asp-3COOHF-Ala-Ala-Phe-Asn-PyrS2-2C1F-BztA-Val-NH2]",16,,20900
"CC(=O)N1CCC[C@]12CC=CCCCC1(CCCC=CCCCCCC[C@@](C)(C(=O)N[C@@H](Cc3ccccc3)C(=O)N[C@@H](Cc3csc4ccccc34)C(=O)N[C@@H](CCC(N)=O)C(N)=O)NC(=O)[C@H](CC(C)C)NC(=O)[C@H](Cc3ccccc3)NC(=O)[C@H](C)NC(=O)[C@H](C)NC(=O)[C@H](CCC(=O)O)NC(=O)[C@H](CC(=O)O)NC1=O)NC(=O)[C@H](CC(N)=O)NC(=O)[C@H](CC(=O)O)NC2=O (stereo partly drawn) [I-1533, Ac-PL3-Asp-Asn-B5-Asp-Glu-Ala-Ala-Phe-Leu-S8-Phe-BztA-Gln-NH2]",76,> 20000,

# Next, values leading:
IC50 [1] [nM],IC50 ([2]; absolute IC50) [nM],IC50 [2] [nM],SMILES
63,> 20000,,"CC(=O)N1CCC[C@]12CC=CCCCC1(CCCC=CCCCOC(=O)N3CC[C@@](C(=O)N[C@@H](Cc4ccccc4)C(=O)N[C@@H](Cc4csc5ccccc45)C(=O)N[C@@H](CCCCN)C(N)=O)(C3)NC(=O)[C@H](CC(C)C)NC(=O)[C@H](Cc3ccccc3)NC(=O)[C@H](C)NC(=O)[C@H](CCCCNC(C)C)NC(=O)[C@H]([C@@H](C)O)NC(=O)[C@H](CC(=O)O)NC1=O)NC(=O)[C@H](CC1CCCCC1)NC(=O)[C@H](CC(N)=O)NC2=O (stereo partly drawn) [I-2450, Ac-PL3-Asn-Cha-B5-Asp-Thr-iPrLys-Ala-Phe-Leu-PyrS2-Phe-BztA-Lys-NH2]"
16,4600,,"CC(=O)N1CCC[C@]12CC=CCCCC1(CCCC=CCCCOC(=O)N3CC[C@@](C(=O)N[C@@H](Cc4ccccc4C(F)(F)F)C(=O)N[C@@H](Cc4ccc(C)c(C)c4)C(=O)N[C@@H](C)C(N)=O)(C3)NC(=O)[C@H](CC(C)C)NC(=O)[C@H](Cc3ccccc3)NC(=O)[C@H](C)NC(=O)[C@H](CCC(N)=O)NC(=O)[C@H](Cc3cccc(C(=O)O)c3)NC(=O)[C@H](CC(=O)O)NC1=O)NC(=O)[C@H](CC(C)(C)C)NC(=O)[C@H](CC(=O)O)NC2=O (stereo partly drawn) [I-2294, Ac-PL3-Asp-Npg-B5-Asp-3COOHF-Gln-Ala-Phe-Leu-PyrS2-2F3MeF-34MeF-Ala-NH2]"
29,19600,,"CCCC[C@@H]1NC(=O)[C@H](Cc2ccccc2)NC(=O)[C@H](C)NC(=O)C(C)(C)NC(=O)[C@H](Cc2cccc(C(=O)O)c2)NC(=O)[C@H](CC(=O)O)NC(=O)C2(CCCC=CCCCOC(=O)N3CC[C@@](C(=O)N[C@@H](Cc4ccsc4)C(=O)N[C@@H](Cc4csc5ccccc45)C(=O)N[C@@H](CCC(=O)N4CCC(C(F)(F)F)CC4)C(N)=O)(C3)NC1=O)CCCC=CC[C@]1(CCCN1C(C)=O)C(=O)N[C@@H](CC(=O)O)C(=O)N[C@@H](CC(C)(C)C)C(=O)N2 (stereo partly drawn) [I-2557, Ac-PL3-Asp-Npg-B5-Asp-3COOHF-Aib-Ala-Phe-nLeu-PyrS2-3Thi-BztA-4F3CPip]GlnR-NH2]"
8,6000,,"CC(=O)N1CCC[C@]12CC=CCCCC1(CCCC=CCCCOC(=O)N3CC[C@@](C(=O)N[C@@H](Cc4ccsc4)C(=O)N[C@@H](Cc4cccc(Br)c4)C(=O)N[C@@H](C)C(N)=O)(C3)NC(=O)[C@H](C(C)C)NC(=O)[C@H](Cc3ccccc3)NC(=O)[C@H](C)NC(=O)[C@H](CCC(N)=O)NC(=O)[C@H](Cc3cccc(C(=O)O)c3)NC(=O)[C@H](CC(=O)O)NC1=O)NC(=O)[C@H](CC(C)(C)C)NC(=O)[C@H](CC(=O)O)NC2=O (stereo partly drawn) [I-2308, Ac-PL3-Asp-Npg-B5-Asp-3COOHF-Gln-Ala-Phe-Val-PyrS2-3Thi-3BrF-Ala-NH2]"
